According to patent US4892740A, “Orally administrable pharmaceutical preparation of improved flavoring characteristics” (Taisho Pharmaceutical Co., Ltd., priority 1987, dated 1990):

Test: Blood concentration of TE-031 after oral administration to Beagle dogs (bioassay method)
Assay type: in vivo
Details: dog, male Beagle dogs
Protocol: Test Animals Five male Beagle dogs weighing 10 kg were used as experimental animals. Sample The pharmaceutical preparation obtained in Example 1 (coated particles containing 39% of TE-031 prepared by using AEA powder having an average particle diameter of 16 microns as the powder bed) was used in an amount of 100 mg as TE-031. Testing procedure The sample was orally administered together with water to the experimental animals, and the concentration of TE-031 in the blood was measured by the bioassay method. Then after a period of 10 days during which the sample was not administered, a capsule containing 100 mg of the bulk of TE-031 was orally administered as a control together with water. The concentration of TE-031 in the blood was likewise measured by bioassay.

- AUC (100 mg as TE-031, read-out: area below the blood level curve): 42400 ng·h/mL
- Cmax (100 mg as TE-031, read-out: maximum blood level): 3060 ng/mL
- Tmax (100 mg as TE-031, read-out: time of highest blood level): 2 h
Compound: CC[C@H]1OC(=O)[C@H](C)[C@@H](O[C@H]2C[C@@](C)(OC)[C@@H](O)[C@H](C)O2)[C@H](C)[C@@H](O[C@@H]2O[C@H](C)C[C@H](N(C)C)[C@H]2O)[C@](C)(OC)C[C@@H](C)C(=O)[C@H](C)[C@@H](O)[C@]1(C)O [bulk, 6-O-methylerythromycin A]
